Measurements: patent US12419918B2, “Pediococcus acidilactici CCFM6432 for alleviating depression, food fermented thereby and application thereof” (Jiangnan University, priority 2019, dated 2025)

Legend:
depressed mice = experiment: Elevated plus-maze test; type: in vivo, C57BL/6J mice; conditions: chronic unpredictable mild stress mice; gavage; activities within 10 min
Experimental: 32 6-week-old male C57BL/6J mice were selected. After one week of adaptation to the environment, the mice were randomly divided into four groups according to body weight: a normal control group, a depression model group, a drug intervention group, and a CCFM6432 intervention group, each containing 8 mice.
Chronic unpredictable stress depression mouse model: 1-2 kinds of stimuli were randomly performed every day, and the performance time of stimuli every day was determined randomly to avoid the circadian rhythm. Each method was used for not more than three times, and the stimuli were performed for five weeks. The stimuli include: (1) fasting for 24 h; (2) water deprivation+empty bottle stimulus for 24 h; (3) tail pinching for 3 min; (4) wet padding for 24 h; (5) immobilization for 1-2 h; (6) 45° tilted cage for 24 h; (7) continuous lighting for 24 h; (8) no padding for 24 h; (9) forced swim for 15 min; and (10) separation for 24 h. […]
At the beginning of the test, a mouse was placed into a maze from the central grid facing a closed arm, and its activities within 10 min were recorded. […] The proportion of time spent in the open arms, the proportion of entries in the open arms, and the total number of entries in the elevated plus maze were calculated. […]

[1] = tested on: regulatory T cells (Tregs); experiment: Regulatory T cells (CD4+CD25+Foxp3+) in spleen by flow cytometry; type: in vivo; conditions: chronic stress mice; sixth weekend
Experimental: (§1) The mice in Example 2 were euthanized at the sixth weekend. A fresh mouse spleen (about 50 mg) was taken, 5 mL of a pre-chilled PBS buffer was added, and the mouse spleen was cut, ground, and filtered with a 200-mesh nylon sieve to obtain a tissue cell suspension. 2 mL of an erythrocyte lysate was added for lysis for 4 min, and the lysate was removed by centrifugation at room temperature (300×g, 5 min). The obtained cell precipitate was washed with pre-cooled PBS twice, and resuspended with a certain amount of PBS to obtain a lymphocyte suspension. Antibody labeling of regulatory T cells (Tregs) was performed in accordance with the instructions of an eBioscience Mouse Regulatory T cell Staining Kit (Invitrogen Corporation, Carlsbad, CA, USA). The Tregs (CD4+CD25+Foxp3+) were detected by flow cytometry. The contents of IL-1β, IL-6 and TNF-α in the serum were detected with an ELISA kit.

IL-1β, IL-6 and TNF-α = IL-1β, IL-6 and TNF-α in the serum by ELISA kit; type: in vivo; conditions: chronic stress mice; sixth weekend
Experimental: as §1

intestinal microbiome = experiment: 16S rDNA sequencing of the intestinal microbiome from mouse feces; type: in vivo; conditions: depressed mice feces
From the text: Fresh feces of the mice in Example 2 was taken at the sixth weekend, and total DNA was extracted from the mouse feces sample using an MP feces kit. Specific operation steps are as follows, mainly referring to the kit instructions. The mouse fecal genome was used as a template, V3-V4 fragments of 16S rDNA were amplified using a forward primer 520F (5′-AYTGGGYDTAAAGNG-3′) and a reverse primer 802R (5′-TACNVGGGTATCTAATCC-3′) as primers, and the length of a target fragment was about 247 bp. After the PCR reaction, all PCR samples in which target bands were observed were electrophoresed again, a 2.0% agarose gel was prepared, and electrophoresis was performed at 120 V for 40 min. […] The DNA concentration of the sample was measured according to a Qubit DNA3.0 kit, then a library was constructed according to a TurSeq DNA LT Sample Preparation Kit and instructions thereof, and finally determination was performed on an Illumina Miseq sequencer according to a MiSeq Regent Kit and instructions thereof. […] The sequences with the similarity greater than 97% were defined as a taxonomic unit (Operational Taxonomic Unit, OTU), and the species was determined by a Ribosomal Database Project (RDP) Naïve Bayesclassifier. The α-diversity and β-diversity of the sample were calculated to assess the bacterial diversity of the sample. […] The β-diversity was assessed by principal co-ordinates analysis (PCoA) (FIG. 9C). […]

Structure (SMILES): CNCCC(Oc1ccc(C(F)(F)F)cc1)c1ccccc1 (stereo not shown) [Fluoxetine, fluoxetine]
- entries and time spent in the open arms (depressed mice): had no effect
- immune state (proportion of Tregs in the spleen) [1]: could significantly improve the immune state
- degree of inflammation (IL-1β, IL-6 and TNF-α in the serum) (IL-1β, IL-6 and TNF-α): reduce the degree of inflammation
- structure of the intestinal microbiome (β-diversity, PCoA) (intestinal microbiome): could normalize the structure of the intestinal microbiome
